According to patent US8586603B2, “Aminotetraline derivatives” (priority 2009, dated 2013):
pEC50, pKi: −log10 of the molar value. “And” between values parts separate entries of the source, which are not always exact repeats. Identical values can stand only once. Like-named read-outs stand apart in the source and are kept apart here.

Experiments:
[1] = target: T1, porcine striatal pD1 dopamine receptor (Sus scrofa, UniProt P50130); assay: Receptor binding assay, [3H]SCH 23390 competition, porcine striatal membranes; conditions: for pKi: means of 2-8 individual experiments each done as triplicate; for selectivity ratio pD1: vs p5-HT1a
T1 construct: membrane homogenates prepared from porcine striatal or cortical tissue; from tissue; host or cells: porcine striatum

[2] = target: T2, porcine cortical p5-HT1a serotonin receptor (Sus scrofa, UniProt A0A4X1UTF5); assay: Receptor binding assay, [3H]WAY100635 competition, porcine cortical membranes; conditions: for pKi: means of 2-8 individual experiments each done as triplicate; for selectivity ratio p5-HT1a: reference receptor of the ratio (=1)
T2 construct: membrane homogenates prepared from porcine striatal or cortical tissue; from tissue; host or cells: porcine cortex
T2 sequence (A0A4X1UTF5 1-422): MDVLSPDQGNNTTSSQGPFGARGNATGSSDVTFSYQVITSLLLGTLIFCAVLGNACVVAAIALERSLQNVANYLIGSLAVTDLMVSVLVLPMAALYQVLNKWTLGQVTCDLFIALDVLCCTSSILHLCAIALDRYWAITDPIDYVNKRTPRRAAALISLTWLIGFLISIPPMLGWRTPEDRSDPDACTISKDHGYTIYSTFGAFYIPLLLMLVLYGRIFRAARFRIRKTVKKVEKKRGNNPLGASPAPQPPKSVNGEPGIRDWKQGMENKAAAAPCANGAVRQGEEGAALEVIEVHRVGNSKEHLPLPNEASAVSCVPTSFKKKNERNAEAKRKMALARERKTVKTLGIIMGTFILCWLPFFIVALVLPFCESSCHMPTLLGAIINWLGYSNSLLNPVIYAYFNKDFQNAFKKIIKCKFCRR

[3] = target: T3, human dopamine receptor subtype hD2long (Homo sapiens, UniProt P14416); assay: Receptor binding assay, [3H]spiperone competition, CHO cell membranes; conditions: for pKi: means of 2-8 individual experiments each done as triplicate; for selectivity ratio hD2long: vs p5-HT1a
T3 construct: expressed in transfected cells; host or cells: CHO
Protocol: (§1) Receptor binding data were determined when performing competition binding assays with membrane preparations of cloned cells (stably transfected Chinese Hamster Ovary cells (CHO)) expressing the human receptors and the following radioligands: [^3H]spiperone at the human dopamine receptor subtypes hD2long, hD2short, D3, and hD4.4.
(§2) Selectivity ratios were calculated by division of the Ki values of the various compounds at the respective receptors through the Ki values at the 5HT1a receptor.

[4] = target: T4, human dopamine receptor subtype hD2short (Homo sapiens, UniProt P14416); assay: as above; conditions: for pKi: means of 2-8 individual experiments each done as triplicate; for selectivity ratio hD2short: vs p5-HT1a
T4 construct: expressed in transfected cells; host or cells: CHO
Protocol: as §1, §2

[5] = target: T5, human dopamine receptor subtype hD3 (Homo sapiens, UniProt P35462); assay: as above; conditions: for pKi: means of 2-8 individual experiments each done as triplicate; for selectivity ratio hD3: vs p5-HT1a
T5 construct: expressed in transfected cells; host or cells: CHO
Protocol: as §1, §2

[6] = target: T6, porcine cortical p5-HT2 serotonin receptor (Sus scrofa, UniProt P50129); assay: Receptor binding assay, [3H]ketanserin competition, porcine cortical membranes; conditions: for pKi: means of 2-8 individual experiments each done as triplicate; for selectivity ratio p5-HT2: vs p5-HT1a
T6 construct: membrane homogenates prepared from porcine striatal or cortical tissue; from tissue; host or cells: porcine cortex

[7] = target: T7, human dopamine receptor subtype hD4.4 (Homo sapiens, UniProt P21917); assay: Receptor binding assay, [3H]spiperone competition, CHO cell membranes; conditions: for pKi: means of 2-8 individual experiments each done as triplicate; for selectivity ratio hD4.4: vs p5-HT1a
T7 construct: expressed in transfected cells; host or cells: CHO
T7 sequence (P21917 1-419): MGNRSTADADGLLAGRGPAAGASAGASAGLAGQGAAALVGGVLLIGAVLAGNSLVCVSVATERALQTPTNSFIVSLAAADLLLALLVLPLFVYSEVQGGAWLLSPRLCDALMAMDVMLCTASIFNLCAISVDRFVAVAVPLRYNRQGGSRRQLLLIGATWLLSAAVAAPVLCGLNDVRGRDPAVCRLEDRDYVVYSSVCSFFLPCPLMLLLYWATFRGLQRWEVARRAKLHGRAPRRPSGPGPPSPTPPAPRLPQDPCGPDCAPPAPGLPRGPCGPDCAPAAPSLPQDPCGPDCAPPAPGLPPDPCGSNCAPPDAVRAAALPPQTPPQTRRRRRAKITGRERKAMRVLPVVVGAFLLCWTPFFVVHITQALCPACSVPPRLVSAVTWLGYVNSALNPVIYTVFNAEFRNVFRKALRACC
Protocol: Receptor binding data were determined when performing competition binding assays with membrane preparations of cloned cells (stably transfected Chinese Hamster Ovary cells (CHO)) expressing the human receptors and the following radioligands: [^3H]spiperone at the human dopamine receptor subtypes hD2long, hD2short, D3, and hD4.4. […].
as §2

[8] = tested on: porcine cortical pα1 adrenergic receptor; assay: Receptor binding assay, [3H]prazosin competition, porcine cortical membranes; conditions: vs p5-HT1a
[9] = target: T8, porcine cortical pα1 adrenergic receptor; assay: as above; conditions: means of 2-8 individual experiments each done as triplicate
T8 construct: Ki pα1; other: means of 2-8 individual experiments each done as triplicate

human 5-HT1a receptor = target: T9, human 5-HT1a receptor (Homo sapiens, UniProt P08908); assay: [35S]GTPγS functional assay; format: biochemical; conditions: for Emax: read-out: intrinsic activity [% rel. to serotonin]
T9 construct: expressed in transfected cells
T9 sequence (P08908 1-422): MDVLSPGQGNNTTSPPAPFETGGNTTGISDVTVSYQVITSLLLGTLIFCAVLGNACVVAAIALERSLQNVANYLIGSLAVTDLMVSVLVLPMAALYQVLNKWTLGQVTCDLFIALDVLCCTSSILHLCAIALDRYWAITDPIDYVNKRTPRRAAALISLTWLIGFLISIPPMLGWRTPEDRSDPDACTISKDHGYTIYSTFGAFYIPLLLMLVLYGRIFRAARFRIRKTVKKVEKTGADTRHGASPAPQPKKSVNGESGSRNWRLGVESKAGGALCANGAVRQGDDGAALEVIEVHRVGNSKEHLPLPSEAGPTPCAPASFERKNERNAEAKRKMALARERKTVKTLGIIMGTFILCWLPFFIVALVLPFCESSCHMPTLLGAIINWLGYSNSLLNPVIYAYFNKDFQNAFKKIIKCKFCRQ
Protocol: Specific binding of [^35S]GTPγS is stimulated by activation of the stably expressed human 5-HT1a receptor in a dose-dependent way by agonists for this GPCR and is determined by measuring the radioactive label of the membrane. Non-linear regression analysis of the resulting dose-response curves yields the EC50 value in [nM] representing the half maximal concentration which is necessary to activate the receptor completely.

[10] = target: porcine cortical pα2 adrenergic receptor; assay: Receptor binding assay, [3H]RX821002 competition, porcine cortical membranes; conditions: means of 2-8 individual experiments each done as triplicate
[11] = mean values of 2-8 individual experiments

T6 sequence (P50129 whole entry): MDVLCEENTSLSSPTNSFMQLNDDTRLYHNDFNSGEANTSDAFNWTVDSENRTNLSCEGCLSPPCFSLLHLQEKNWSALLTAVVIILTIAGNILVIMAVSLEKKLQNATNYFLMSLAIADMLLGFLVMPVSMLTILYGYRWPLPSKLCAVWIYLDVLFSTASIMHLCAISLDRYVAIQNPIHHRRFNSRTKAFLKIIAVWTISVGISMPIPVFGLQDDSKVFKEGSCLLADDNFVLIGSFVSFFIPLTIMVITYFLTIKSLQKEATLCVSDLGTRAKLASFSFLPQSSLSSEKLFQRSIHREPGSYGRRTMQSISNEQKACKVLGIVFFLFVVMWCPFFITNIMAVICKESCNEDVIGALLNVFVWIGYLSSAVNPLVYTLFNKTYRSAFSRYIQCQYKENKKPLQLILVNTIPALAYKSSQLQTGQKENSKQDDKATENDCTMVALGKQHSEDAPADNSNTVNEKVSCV
T5 sequence (P35462 whole entry): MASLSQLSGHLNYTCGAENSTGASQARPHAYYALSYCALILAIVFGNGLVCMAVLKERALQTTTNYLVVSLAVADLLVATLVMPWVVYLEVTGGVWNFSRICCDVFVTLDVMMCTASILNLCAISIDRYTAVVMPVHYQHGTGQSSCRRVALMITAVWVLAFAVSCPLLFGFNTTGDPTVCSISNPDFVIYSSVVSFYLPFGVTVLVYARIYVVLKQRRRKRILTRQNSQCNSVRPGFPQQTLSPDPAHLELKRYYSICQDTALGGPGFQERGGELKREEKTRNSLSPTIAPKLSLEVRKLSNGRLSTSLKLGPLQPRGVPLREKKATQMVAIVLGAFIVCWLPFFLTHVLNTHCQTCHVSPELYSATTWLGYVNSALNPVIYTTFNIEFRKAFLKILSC
T3 sequence (P14416 whole entry): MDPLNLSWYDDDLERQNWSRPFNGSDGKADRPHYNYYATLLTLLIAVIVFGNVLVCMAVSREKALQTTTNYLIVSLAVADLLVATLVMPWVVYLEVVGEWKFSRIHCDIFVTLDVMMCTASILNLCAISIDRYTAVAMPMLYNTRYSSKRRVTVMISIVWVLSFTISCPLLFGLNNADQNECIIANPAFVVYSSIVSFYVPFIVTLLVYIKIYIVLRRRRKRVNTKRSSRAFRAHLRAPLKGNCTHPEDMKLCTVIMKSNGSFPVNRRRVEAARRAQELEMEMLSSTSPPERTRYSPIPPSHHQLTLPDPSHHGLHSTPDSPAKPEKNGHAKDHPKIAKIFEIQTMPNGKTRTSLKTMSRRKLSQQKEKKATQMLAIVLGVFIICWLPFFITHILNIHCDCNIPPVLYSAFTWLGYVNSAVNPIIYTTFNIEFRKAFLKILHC
T4 sequence (P14416 1-414 isoform P14416-2): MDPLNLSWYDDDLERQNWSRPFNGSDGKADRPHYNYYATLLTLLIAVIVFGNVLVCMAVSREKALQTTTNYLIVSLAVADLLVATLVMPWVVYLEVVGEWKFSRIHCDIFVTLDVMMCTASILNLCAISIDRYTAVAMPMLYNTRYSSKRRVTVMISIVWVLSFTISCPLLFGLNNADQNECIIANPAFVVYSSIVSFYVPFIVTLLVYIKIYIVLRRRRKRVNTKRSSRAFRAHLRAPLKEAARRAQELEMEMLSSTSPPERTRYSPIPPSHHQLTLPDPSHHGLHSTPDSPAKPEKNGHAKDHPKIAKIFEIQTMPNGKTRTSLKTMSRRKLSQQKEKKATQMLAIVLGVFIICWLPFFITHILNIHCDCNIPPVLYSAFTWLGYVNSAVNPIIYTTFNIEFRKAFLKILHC
T1 sequence (P50130 whole entry): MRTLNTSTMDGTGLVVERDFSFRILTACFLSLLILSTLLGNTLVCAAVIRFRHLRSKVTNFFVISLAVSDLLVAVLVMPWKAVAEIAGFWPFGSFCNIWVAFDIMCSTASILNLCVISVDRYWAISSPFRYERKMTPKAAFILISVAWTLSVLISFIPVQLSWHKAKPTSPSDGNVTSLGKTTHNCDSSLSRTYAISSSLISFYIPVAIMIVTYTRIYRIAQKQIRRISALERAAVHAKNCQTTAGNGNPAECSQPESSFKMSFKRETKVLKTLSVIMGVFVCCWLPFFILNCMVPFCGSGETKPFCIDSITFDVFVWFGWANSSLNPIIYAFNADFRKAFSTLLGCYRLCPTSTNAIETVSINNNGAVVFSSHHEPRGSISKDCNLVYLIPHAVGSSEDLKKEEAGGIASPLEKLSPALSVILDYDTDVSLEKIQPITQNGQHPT

Row | Compound | pKi [1] | selectivity ratio pD1 [1] | pKi [2] | selectivity ratio p5-HT1a [2] | pKi [3] | selectivity ratio hD2long [3] | pKi [4] | selectivity ratio hD2short [4] | pKi [5] | selectivity ratio hD3 [5] | pKi [6] | selectivity ratio p5-HT2 [6] | pKi [7] | selectivity ratio hD4.4 [7] | selectivity ratio pα1 [8] | pKi [9] | pKi [10] | other results
1 | CCCN(CCc1cc(C)ccc1C)C1CCc2cccc(O)c2C1 (centres unmarked) [Compound 7, N-[2-(2,5-Dimethylphenyl)ethyl]-N-(8-hydroxytetralin-2-yl)-N-propylamine] | 5.62 | 1 400 | 8.77 | 1 | 6.85 | 82 | 7.05 | 53 | 6.89 | 76 | 5.77 | 1 000 | 6.31 | 290 | 46 | 7.11 |  | melting point: 102 °C
2 | N-(2-Adamantylethyl)-N-(8-hydroxytetralin-2-yl)-N-propylamine [Compound 9] | 5.59 | 740 | 8.46 | 1 | 7.80 | 4.6 | 7.92 | 3.4 | 7.41 | 11 | 5.80 | 1600 | 6.46 | 100 | 160 | 6.24 |  | pEC50 (human 5-HT1a receptor): 8.72; intrinsic activity [% rel. to serotonin] (human 5-HT1a receptor; [35S]GTPγS incorporation relative to serotonin (=100%)): 88%
3 | CCCN(CCc1cccs1)[C@@H]1CCc2cccc(O)c2C1 [Compound 1a, (R)—N-(8-Hydroxytetralin-2-yl)-N-propyl-N-[2-(2-thienyl)ethyl]amine] | 5.06 | 17 000 | 9.28 | 1 | 6.62 | 460 | 6.59 | 500 | 7.00 | 190 | 5.60 | 4 800 | 7.00 | 190 | 1 200 | 6.19 | 7.25 | agonist activity at the human 5-HT1a receptor (human 5-HT1a receptor; in words): full agonist activity; pEC50 (human 5-HT1a receptor; [11]): 8.72 to 9.19 and 9.19; Emax (human 5-HT1a receptor): 103%
4 | CCCN(CCc1cc2ccc1CCc1ccc(cc1)CC2)C1CCc2cccc(OC)c2C1 (centres unmarked) [Compound 14, N-(8-Methoxytetralin-2-yl)-N-propyl-N-[2-([2.2]paracyclophan-4-yl)ethyl]-amine] | 5.72 | 38 | 7.30 | 1 | 7.32 | 0.96 | 7.46 | 0.70 | 7.48 | 0.66 | 5.14 | 150 | 6.96 | 2.2 | 5.6 | 6.55 |  | 
5 | CCCN(CCc1ccccc1)C1CCc2cccc(OC)c2C1 (centres unmarked) [Compound 4, N-(8-Methoxytetralin-2-yl)-N-(2-phenylethyl)-N-propylamine] | 5.14 |  | 8.60 |  | 6.48 |  | 6.64 |  | 7.29 |  | 5.38 |  | 6.28 |  |  | 6.72 | 7.22 | 
6 | N-(2-Adamantylethyl)-N-(8-methoxytetralin-2-yl)-N-propylamine [Compound 10] | 4.92 | 180 | 7.19 | 1 | 6.42 | 5.8 | 6.72 | 2.9 | 6.59 | 4.0 | 4.85 | 220 | 5.74 | 28 | 75 | 5.31 |  | 
7 | CCCN(CCc1cccs1)[C@@H]1CCc2cccc(OC)c2C1 [Compound 2a, (R)—N-(8-Methoxytetralin-2-yl)-N-propyl-N-[2-(2-thienyl)ethyl]amine] | 5.28 |  | 8.14 |  | 6.12 |  | 6.08 |  | 6.64 |  | 5.22 |  | 6.06 |  |  | 6.85 | 7.19 | pEC50 (human 5-HT1a receptor; [11]): 8.96; Emax (human 5-HT1a receptor): 82%
